ChEMBL document CHEMBL2439969, “Replacement of Thr32 and Gln34 in the C-terminal neuropeptide Y fragment 25-36 by cis-cyclobutane and cis-cyclopentane β-amino acids shifts selectivity toward the Y(4) receptor” (J Med Chem, 2013)
Each block holds one compound with its values, some of them ahead of it. Residues, ends and D or L forms follow the SMILES beside them.

Tests used:
[1] = biological target: T1, Neuropeptide Y receptor type 4 (Homo sapiens, UniProt P50391); experiment: Displacement of Cy5-[K4]hPP from human Y4 receptor expressed in CHO cells after 90 to 120 mins by flow cytometry; type: cell-based
T1 sequence (P50391 whole entry): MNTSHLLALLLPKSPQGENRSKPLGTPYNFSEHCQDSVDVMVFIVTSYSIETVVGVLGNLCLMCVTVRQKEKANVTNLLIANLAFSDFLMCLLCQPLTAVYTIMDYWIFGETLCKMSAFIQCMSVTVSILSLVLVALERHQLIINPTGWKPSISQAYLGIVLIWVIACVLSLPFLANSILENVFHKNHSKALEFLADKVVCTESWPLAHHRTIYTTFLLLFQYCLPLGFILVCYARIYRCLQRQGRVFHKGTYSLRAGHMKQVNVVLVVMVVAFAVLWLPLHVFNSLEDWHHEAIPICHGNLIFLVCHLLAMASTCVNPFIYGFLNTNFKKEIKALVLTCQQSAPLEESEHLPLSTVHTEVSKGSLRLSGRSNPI

[2] = biological target: T2, Neuropeptide Y receptor type 5 (Homo sapiens, UniProt Q15761); experiment: Displacement of Cy5-pNPY from human Y5 receptor expressed in human HEC-1B cells after 90 to 120 mins by flow cytometry; type: cell-based
T2 sequence (Q15761 whole entry): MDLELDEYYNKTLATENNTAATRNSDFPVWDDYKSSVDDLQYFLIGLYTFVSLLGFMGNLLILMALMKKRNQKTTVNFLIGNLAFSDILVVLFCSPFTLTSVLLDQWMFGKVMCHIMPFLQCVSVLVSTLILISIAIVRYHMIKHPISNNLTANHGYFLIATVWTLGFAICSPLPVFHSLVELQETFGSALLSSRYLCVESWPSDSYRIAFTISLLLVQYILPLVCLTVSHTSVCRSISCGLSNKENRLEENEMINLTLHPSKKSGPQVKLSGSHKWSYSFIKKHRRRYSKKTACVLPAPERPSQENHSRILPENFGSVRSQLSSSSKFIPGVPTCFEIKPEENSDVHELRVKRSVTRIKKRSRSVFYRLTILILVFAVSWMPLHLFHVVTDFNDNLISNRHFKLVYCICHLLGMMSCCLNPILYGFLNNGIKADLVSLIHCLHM

[3] = biological target: T3, Neuropeptide Y receptor type 2 (Homo sapiens, UniProt P49146); experiment: Displacement of Cy5-pNPY from human Y2 receptor expressed in CHO cells after 90 to 120 mins by flow cytometry; type: cell-based
T3 sequence (P49146 whole entry): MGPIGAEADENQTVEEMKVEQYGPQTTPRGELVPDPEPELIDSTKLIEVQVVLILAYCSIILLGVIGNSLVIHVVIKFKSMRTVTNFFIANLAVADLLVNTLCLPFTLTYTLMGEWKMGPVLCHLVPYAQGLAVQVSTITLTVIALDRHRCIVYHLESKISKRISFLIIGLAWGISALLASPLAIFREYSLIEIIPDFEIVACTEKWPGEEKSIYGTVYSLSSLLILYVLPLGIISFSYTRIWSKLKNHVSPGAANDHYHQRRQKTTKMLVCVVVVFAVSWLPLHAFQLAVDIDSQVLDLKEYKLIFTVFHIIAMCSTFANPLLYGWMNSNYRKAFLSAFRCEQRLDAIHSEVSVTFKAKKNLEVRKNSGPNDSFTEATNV

[4] = biological target: T1, Neuropeptide Y receptor type 4; experiment: Partial agonist activity at human Y4 receptor expressed in sf9 cells assessed as hydrolysis of [gamma-33P]GTP after 2 mins by scintillation counting analysis
[5] = biological target: T4, Neuropeptide Y receptor type 1 (Homo sapiens, UniProt P25929); experiment: Displacement of Cy5-pNPY from human Y1 receptor expressed in HEL cells after 90 to 120 mins by flow cytometry; type: cell-based
T4 sequence (P25929 whole entry): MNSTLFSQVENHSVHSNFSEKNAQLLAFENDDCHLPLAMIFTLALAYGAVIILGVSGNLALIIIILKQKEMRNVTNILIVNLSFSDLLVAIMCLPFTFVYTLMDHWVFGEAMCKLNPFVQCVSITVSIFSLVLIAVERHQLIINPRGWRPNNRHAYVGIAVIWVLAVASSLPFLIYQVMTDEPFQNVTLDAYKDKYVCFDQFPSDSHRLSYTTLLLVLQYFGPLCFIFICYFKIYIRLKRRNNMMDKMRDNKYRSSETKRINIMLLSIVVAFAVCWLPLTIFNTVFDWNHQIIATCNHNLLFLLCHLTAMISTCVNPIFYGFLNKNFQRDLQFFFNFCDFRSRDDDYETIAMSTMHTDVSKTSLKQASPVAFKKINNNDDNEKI

[6] = biological target: T4, Neuropeptide Y receptor type 1; experiment: Binding affinity to Y1 receptor (unknown origin)
[7] = biological target: T2, Neuropeptide Y receptor type 5; experiment: Binding affinity to Y5 receptor (unknown origin)
[8] = biological target: T3, Neuropeptide Y receptor type 2; experiment: Binding affinity to human Y2 receptor expressed in human SMS-KAN cells by radioligand binding assay; type: cell-based
[9] = biological target: T1, Neuropeptide Y receptor type 4; experiment: Agonist activity at human Y4 receptor expressed in sf9 cells assessed as hydrolysis of [gamma-33P]GTP after 2 mins by scintillation counting analysis
[10] = Binding affinity to rabbit kidney Y2 receptor by radioligand binding assay; design: species or system Oryctolagus cuniculus
[11] = biological target: T3, Neuropeptide Y receptor type 2; experiment: Binding affinity to Y2 receptor (unknown origin) expressed in human LN319 cells by radioligand binding assay; type: cell-based
[12] = biological target: T1, Neuropeptide Y receptor type 4; experiment: Partial agonist activity at human Y4 receptor expressed in sf9 cells assessed as hydrolysis of [gamma-33P]GTP after 2 mins by scintillation counting analysis relative to hPP
[13] = Binding affinity to Y2 receptor (unknown origin); design: species or system Homo sapiens

Ki [1]: 0.01 µM
Ki [2]: > 0.5 µM
Ki [3]: > 1 µM
EC50 [4]: 0.041 µM
Ki [5]: > 1 µM
Compound: CC[C@H](C)[C@H](NC(=O)[C@H](Cc1ccc(O)cc1)NC(=O)[C@H](Cc1cnc[nH]1)NC(=O)[C@H](CCCN=C(N)N)NC(C)=O)C(=O)N[C@@H](CC(N)=O)C(=O)N[C@@H](CC(C)C)C(=O)N[C@H](C(=O)N[C@H](C(=O)N[C@@H](CCCN=C(N)N)C(=O)N[C@H]1CCC[C@H]1C(=O)N[C@@H](CCCN=C(N)N)C(=O)N[C@@H](Cc1ccc(O)cc1)C(N)=O)[C@@H](C)O)[C@@H](C)CC (HELM PEPTIDE1{[ac].R.H.Y.I.N.L.I.T.R.[O=C([C@@H]1CCC[C@@H]1N[*:1])[*:2]].R.Y.[am]}$$$$V2.0)

Ki [6]: 0.029 µM
Ki [7]: 0.118 µM
Compound: CC[C@H](C)[C@H](NC(=O)[C@H](Cc1ccc(O)cc1)NC(=O)[C@H](Cc1cnc[nH]1)NC(=O)[C@H](CCCNC(=N)N)NC(C)=O)C(=O)N[C@@H](CC(N)=O)C(=O)N[C@@H](CC(C)C)C(=O)N[C@H](C(=O)N[C@H](C(=O)N[C@@H](CCCNC(=N)N)C(=O)N[C@@H]1[C@H](C(=O)N[C@@H](CCCNC(=N)N)C(=O)N[C@@H](Cc2ccc(O)cc2)C(N)=O)[C@H]1C(=O)OC)[C@@H](C)O)[C@@H](C)CC (HELM PEPTIDE1{[ac].R.H.Y.I.N.L.I.T.R.[COC(=O)[C@H]1[C@H](N[*:1])[C@@H]1C(=O)[*:2]].R.Y.[am]}$$$$V2.0)

Ki [1]: > 1 µM
Ki [8]: 0.0071 µM
Ki [2]: > 1 µM
Ki [3]: 1.51 µM
EC50 [9]: 0.53 µM
Ki [10]: 0.0102 µM
IC50 [11]: 0.132 µM
Ki [5]: > 1 µM
Compound: Ac-RHYINLITRQRY-NH2

Ki [1]: 0.075 µM
Emax [12]: 70%
Ki [2]: > 1 µM
Ki [3]: > 1 µM
EC50 [4]: 0.053 µM
Ki [5]: 0.281 µM
Compound: CCCC[C@H](NC(=O)[C@H](CC(N)=O)NC(=O)[C@@H](NC(=O)[C@H](Cc1ccc(O)cc1)NC(=O)[C@H](CCCNC(=N)N)NC(=O)[C@H](CCCNC(=N)N)NC(C)=O)[C@@H](C)CC)C(=O)N[C@@H](CC(C)C)C(=O)N[C@H](C(=O)N[C@@H](CCCNC(=N)N)C(=O)N1CCC[C@H]1C(=O)N[C@@H](CCCNC(=N)N)C(=O)N[C@@H](Cc1ccc(O)cc1)C(N)=O)[C@@H](C)O (HELM PEPTIDE1{[ac].R.R.Y.I.N.[Nle].L.T.R.P.R.Y.[am]}$$$$V2.0)

IC50 [13]: 0.012 µM
Compound: Ac-RHYINLIYRLRY-NH2

Ki [6]: 0.05 µM
Ki [7]: 0.617 µM
Compound: CC[C@H](C)[C@H](NC(=O)[C@H](Cc1ccc(O)cc1)NC(=O)[C@H](Cc1cnc[nH]1)NC(=O)[C@H](CCCN=C(N)N)NC(C)=O)C(=O)N[C@@H](CC(N)=O)C(=O)N[C@@H](CC(C)C)C(=O)N[C@@H](CCCN=C(N)N)C(=O)N[C@@H]1[C@H](C(=O)N[C@@H](CCCN=C(N)N)C(=O)N[C@@H]2[C@H](C(=O)N[C@@H](CCCN=C(N)N)C(=O)N[C@@H](Cc3ccc(O)cc3)C(N)=O)[C@H]2C(=O)OC)[C@H]1C(=O)OC (HELM PEPTIDE1{[ac].R.H.Y.I.N.L.R.[COC(=O)[C@H]1[C@H](N[*:1])[C@@H]1C(=O)[*:2]].R.[COC(=O)[C@H]1[C@H](N[*:1])[C@@H]1C(=O)[*:2]].R.Y.[am]}$$$$V2.0)

Emax [12]: 71%
Compound: CC[C@H](C)[C@H](NC(=O)[C@H](Cc1ccc(O)cc1)NC(=O)[C@H](Cc1cnc[nH]1)NC(=O)[C@H](CCCNC(=N)N)NC(C)=O)C(=O)N[C@@H](CC(N)=O)C(=O)N[C@@H](CC(C)C)C(=O)N[C@H](C(=O)N[C@H](C(=O)N[C@@H](CCCNC(=N)N)C(=O)N[C@H]1CCC[C@H]1C(=O)N[C@@H](CCCNC(=N)N)C(=O)N[C@@H](Cc1ccc(O)cc1)C(N)=O)[C@@H](C)O)[C@@H](C)CC (HELM PEPTIDE1{[ac].R.H.Y.I.N.L.I.T.R.[O=C([C@@H]1CCC[C@@H]1N[*:1])[*:2]].R.Y.[am]}$$$$V2.0)
